Source: PubChem BioAssay AID248 (DTP/NCI, 2004)
“And” between values parts separate entries of the source, which are not always exact repeats. Equal entries are not always repeated. Inconclusive results and toxic doses are left out. Rule as the data show it: active = T/C of 150% or more; inactive = T/C below 125%.

System: L1210 leukemia ip in BDF1 mice, survival T/C
Assay: NCI In Vivo Anticancer Drug Screen. Data for tumor model L1210 Leukemia (intraperitoneal) in B6D2F1 (BDF1) mice
Settings: endpoint: mean survival time, higher = longer survival
In short: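 Transplanted-tumor mice were given test agent; controls received vehicle only. Survival readings from the two groups were divided (treated over control).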

[1] = dose: 100.0 mg/kg/injection, schedule: Q01DX001 (ip), vehicle: saline
[2] = dose: 100.0 mg/kg/injection, schedule: Q01DX009 (ip), vehicle: saline
[3] = dose: 200.0 mg/kg/injection, schedule: Q01DX001 (ip), vehicle: saline
[4] = dose: 200.0 mg/kg/injection, schedule: Q01DX009 (ip), vehicle: saline
[5] = dose: 400.0 mg/kg/injection, schedule: Q01DX001 (ip), vehicle: saline
[6] = dose: 400.0 mg/kg/injection, schedule: Q01DX009 (ip), vehicle: saline
[7] = dose: 100.0 mg/kg/injection, schedule: Q01DX009 (ip), vehicle: saline with Tween-80
[8] = dose: 100.0 mg/kg/injection, schedule: Q04DX002 (ip), vehicle: saline with Tween-80
[9] = dose: 100.0 mg/kg/injection, schedule: Q04DX003 (ip), vehicle: saline with Tween-80
[10] = dose: 200.0 mg/kg/injection, schedule: Q01DX009 (ip), vehicle: saline with Tween-80
[11] = dose: 200.0 mg/kg/injection, schedule: Q04DX002 (ip), vehicle: saline with Tween-80
[12] = dose: 200.0 mg/kg/injection, schedule: Q04DX003 (ip), vehicle: saline with Tween-80
[13] = dose: 400.0 mg/kg/injection, schedule: Q01DX009 (ip), vehicle: saline with Tween-80
[14] = dose: 400.0 mg/kg/injection, schedule: Q04DX002 (ip), vehicle: saline with Tween-80
[15] = dose: 100.0 mg/kg/injection, schedule: Q01DX009 (ip), vehicle: Klucel (hydroxypropylcellulose) (HPC)
[16] = dose: 200.0 mg/kg/injection, schedule: Q01DX009 (ip), vehicle: Klucel (hydroxypropylcellulose) (HPC)
[17] = dose: 200.0 mg/kg/injection, schedule: Q04DX003 (ip), vehicle: Klucel (hydroxypropylcellulose) (HPC)
[18] = dose: 400.0 mg/kg/injection, schedule: Q04DX003 (ip), vehicle: Klucel (hydroxypropylcellulose) (HPC)
[19] = dose: 100.0 mg/kg/injection, schedule: Q04DX003 (ip), vehicle: saline
[20] = dose: 200.0 mg/kg/injection, schedule: Q04DX003 (ip), vehicle: saline
[21] = dose: 100.0 mg/kg/injection, schedule: Q04DX002 (ip), vehicle: Klucel (hydroxypropylcellulose) (HPC)

Measured: T/C

CNC(C)=O
inactive: [1] 100 % of control | [2] 110 % of control | dose: 125.0 mg/kg/injection, schedule: Q01DX Z (ip), vehicle: carboxymethylcellulose (CMC) 86 % of control | [3] 97 % of control | [4] 107 % of control | [5] 95 % of control | [6] 115 % of control | dose: 500.0 mg/kg/injection, schedule: Q01DX Z (ip), vehicle: carboxymethylcellulose (CMC) 86 % of control | dose: 1000.0 mg/kg/injection, schedule: Q01DX Z (ip), vehicle: carboxymethylcellulose (CMC) 110 % of control

COc1ccc(C2(O)C3CCC(C3)C2(C)C)cc1 (stereo unspecified)
inactive: dose: 50.0 mg/kg/injection, schedule: Q01DX001 (ip), vehicle: carboxymethylcellulose (CMC) 89 % of control | dose: 100.0 mg/kg/injection, schedule: Q01DX001 (ip), vehicle: carboxymethylcellulose (CMC) 89 % of control | dose: 200.0 mg/kg/injection, schedule: Q01DX001 (ip), vehicle: carboxymethylcellulose (CMC) 89 % of control | dose: 400.0 mg/kg/injection, schedule: Q01DX001 (ip), vehicle: carboxymethylcellulose (CMC) 95 % of control

Cc1ccc(Cl)cc1NC(=O)Nc1cccc2ccc(O)cc12
inactive: dose: 50.0 mg/kg/injection, schedule: Q04DX003 (ip), vehicle: saline with Tween-80 102 % of control | dose: 100.0 mg/kg/injection, schedule: Q01DX001 (ip), vehicle: saline with Tween-80 95 % of control | [7] 95 % of control and 101 % of control | [8] 102 % of control and 90 % of control | [9] 96 % of control | dose: 200.0 mg/kg/injection, schedule: Q01DX001 (ip), vehicle: saline with Tween-80 97 % of control | [10] 88 % of control and 92 % of control | [11] 95 % of control and 91 % of control | [12] 91 % of control | dose: 400.0 mg/kg/injection, schedule: Q01DX001 (ip), vehicle: saline with Tween-80 101 % of control | [13] 95 % of control and 103 % of control | [14] 87 % of control and 90 % of control | dose: 400.0 mg/kg/injection, schedule: Q04DX003 (ip), vehicle: saline with Tween-80 96 % of control

CC12CCC(=O)C=C1CCC1C2CCC2(C)C(OC(=O)c3ccc(N)cc3)CCC12 (stereo unspecified)
inactive: [8] 94 % of control | [11] 91 % of control | [14] 94 % of control

O=C(Nc1ccccc1-c1ccc([N+](=O)[O-])cc1)c1cc(Cl)cc(Cl)c1
inactive: [9] 88 % of control | [12] 88 % of control

Oc1ccc(/C=N\Nc2ccccn2)c(O)c1
inactive: [15] 88 % of control | [16] 91 % of control

CC(=O)Nc1cccc2ccc([N+](=O)[O-])cc12
inactive: [15] 96 % of control | dose: 100.0 mg/kg/injection, schedule: Q04DX003 (ip), vehicle: Klucel (hydroxypropylcellulose) (HPC) 94 % of control | [16] 98 % of control | [17] 105 % of control | dose: 400.0 mg/kg/injection, schedule: Q01DX009 (ip), vehicle: Klucel (hydroxypropylcellulose) (HPC) 98 % of control | [18] 98 % of control

CC(C)(C)OC(=O)NC1CCCCC1
inactive: [8] 111 % of control | [11] 101 % of control | [14] 104 % of control

O=C(O)CNC(=S)Nc1ccc(S(=O)(=O)c2ccc(NC(=S)NCC(=O)O)cc2)cc1
inactive: [1] 102 % of control | [3] 102 % of control | [5] 102 % of control

Cc1ccc(CNc2ccc(I)cc2)cc1
inactive: [7] 96 % of control | [10] 96 % of control | [13] 98 % of control

NCCCCCCN (tested in a mixture with another compound)
inactive: dose: 3.0 mg/kg/injection, schedule: Q01DX009 (ip), vehicle: acid diluted with saline 101 % of control | dose: 3.0 mg/kg/injection, schedule: Q04DX003 (ip), vehicle: acid diluted with saline 104 % of control | dose: 6.0 mg/kg/injection, schedule: Q01DX009 (ip), vehicle: acid diluted with saline 108 % of control | dose: 6.0 mg/kg/injection, schedule: Q04DX003 (ip), vehicle: acid diluted with saline 89 % of control | dose: 12.0 mg/kg/injection, schedule: Q04DX003 (ip), vehicle: acid diluted with saline 106 % of control

O=C(O)c1cccc2ccc3ccccc3c12
inactive: [1] 121 % of control | [19] 102 % of control | [3] 101 % of control | [20] 96 % of control | [5] 97 % of control | dose: 400.0 mg/kg/injection, schedule: Q04DX003 (ip), vehicle: saline 96 % of control

NC(CCl)=NCC1CCCCCCC1
inactive: dose: 25.0 mg/kg/injection, schedule: Q01DX009 (ip), vehicle: Klucel (hydroxypropylcellulose) (HPC) 103 % of control | dose: 25.0 mg/kg/injection, schedule: Q04DX002 (ip), vehicle: Klucel (hydroxypropylcellulose) (HPC) 100 % of control | dose: 50.0 mg/kg/injection, schedule: Q04DX002 (ip), vehicle: Klucel (hydroxypropylcellulose) (HPC) 107 % of control | [21] 101 % of control and 89 % of control

CCOC(=O)c1ccc(Cn2c(C)cc(=O)n(Cc3ccc(C(=O)OCC)cc3)c2=O)cc1
inactive: dose: 100.0 mg/kg/injection, schedule: Q01DX001 (ip), vehicle: Klucel (hydroxypropylcellulose) (HPC) 102 % of control | dose: 200.0 mg/kg/injection, schedule: Q01DX001 (ip), vehicle: Klucel (hydroxypropylcellulose) (HPC) 94 % of control | dose: 400.0 mg/kg/injection, schedule: Q01DX001 (ip), vehicle: Klucel (hydroxypropylcellulose) (HPC) 91 % of control

CCOC(=O)Sc1nc2ccccc2[nH]1
inactive: dose: 75.0 mg/kg/injection, schedule: Q04DX003 (ip), vehicle: saline with Tween-80 101 % of control | dose: 150.0 mg/kg/injection, schedule: Q04DX003 (ip), vehicle: saline with Tween-80 98 % of control | dose: 300.0 mg/kg/injection, schedule: Q04DX003 (ip), vehicle: saline with Tween-80 87 % of control

Nc1nc(=O)[nH]c(N)c1N
inactive: dose: 50.0 mg/kg/injection, schedule: Q04DX003 (ip), vehicle: saline 91 % of control | [1] 98 % of control | [19] 91 % of control | [3] 114 % of control | [20] 88 % of control

CCC(C)OP(=S)(S)OC(C)CC (stereo unspecified) (tested in a mixture with another compound)
inactive: dose: 100.0 mg/kg/injection, schedule: Q04DX002 (ip), vehicle: saline 96 % of control | dose: 200.0 mg/kg/injection, schedule: Q04DX002 (ip), vehicle: saline 99 % of control | dose: 400.0 mg/kg/injection, schedule: Q04DX002 (ip), vehicle: saline 96 % of control

Cc1nc2c(nc1C)C(=O)C1C3c4ccccc4C(c4ccccc43)C1C2=O (stereo unspecified)
inactive: [17] 93 % of control | [18] 93 % of control

CN(C)c1ccccc1C1CCCCCC1O (stereo unspecified)
inactive: dose: 75.0 mg/kg/injection, schedule: Q01DX001 (ip), vehicle: carboxymethylcellulose (CMC) 101 % of control | dose: 150.0 mg/kg/injection, schedule: Q01DX001 (ip), vehicle: carboxymethylcellulose (CMC) 90 % of control | dose: 300.0 mg/kg/injection, schedule: Q01DX001 (ip), vehicle: carboxymethylcellulose (CMC) 90 % of control

CC(C)=CCCC/C=N/NC(N)=O
inactive: dose: 75.0 mg/kg/injection, schedule: Q01DX001 (ip), vehicle: acetone 102 % of control | dose: 150.0 mg/kg/injection, schedule: Q01DX001 (ip), vehicle: acetone 97 % of control

CN1Cc2ccccc2/C=C\c2ccccc21
inactive: [21] 103 % of control | dose: 200.0 mg/kg/injection, schedule: Q04DX002 (ip), vehicle: Klucel (hydroxypropylcellulose) (HPC) 106 % of control | dose: 400.0 mg/kg/injection, schedule: Q04DX002 (ip), vehicle: Klucel (hydroxypropylcellulose) (HPC) 100 % of control

C=CCc1ccc2c(c1)OC(CO)CO2 (stereo unspecified) (tested in a mixture with another compound)
inactive: [1] 90 % of control | [3] 93 % of control | [5] 93 % of control

CN(C)/N=C(\CBr)c1ccc([N+](=O)[O-])cc1
inactive: dose: 50.0 mg/kg/injection, schedule: Q01DX009 (ip), vehicle: saline with Tween-80 96 % of control | [7] 96 % of control | [10] 89 % of control

O=S(=O)(O)c1cccc(S(=O)(=O)O)c1
inactive: [2] 105 % of control | [4] 103 % of control | [6] 97 % of control
